Data on twelve compounds can be found in patent US12104176B2, “Efficient cell culture system for hepatitis C virus genotype 6A” (priority 2018, dated 2024).

Test [1] has as its system TN (1a). In words: Concentration-response treatment of infected Huh7.5 cells, TN (1a) control virus. The settings on record: Hepatitis C virus, Huh7.5, read-out: EC50, nM (95% CI), TN (1a).
Protocol: (§1) Huh7.5 cells were seeded in 96-well plates and then infected with the indicated viruses. TN (1a) was used as a comparative control. 24 h after infection, cells were treated with the indicated NS5A inhibitor for 48 h. Values are means of triplicates±SEM. Concentration-response curves were calculated as previously described^26.
(§2) All concentration-response treatment experiments were performed using established methods^16,18,26. For half-maximal effective concentration (EC50) value calculations, a sigmoidal concentration-response curve was fitted using GraphPad Prism 6^18,26.
Test [2] has as its system HK2 (6a). The note with it: for EC50: Hepatitis C virus, Huh7.5, read-out: EC50, nM (95% CI), HK2 (6a); for Fold to TN, HK2 (6a): fold change in EC50 compared to TN.
Protocol: as §1, §2
Test [3] deals with HK6a (6a). In words: Concentration-response treatment of infected Huh7.5 cells, HK6a full-length virus. The note with it: for EC50: Hepatitis C virus, Huh7.5, read-out: EC50, nM (95% CI), HK6a (6a); for Fold to TN, HK6a (6a): fold change in EC50 compared to TN.
Protocol: as §1, §2
In test [4] the test system is HK2-VELesc, L31V (NS5A). It counts as cell-based, HCV genotype 6a. The note with it: HK2-VELesc vs original HK2.
In test [5] the test system is HK6a-VELesc, L31V (NS5A). It counts as cell-based, HCV genotype 6a. The settings on record: HK6a-VELesc vs original HK6a.
Test [6] deals with HK6a-SOFesc, S282T (NS5B). The test is classed as cell-based, HCV genotype 6a. The note with it: HK6a-SOFesc vs original HK6a.
The subject of test [7] is HK6a-SOFesc/VELesc, S282T (NS5B)/L28S (NS5A). It counts as cell-based, HCV genotype 6a. The settings on record: HK6a-SOFesc/VELesc (L28S) vs original HK6a.
In test [8] the test system is HK6a-VELesc/PIB(3 nM)esc, V21A + L28S + L31V (NS5A). The test is classed as cell-based, HCV genotype 6a. The settings on record: HK6a-VELesc/PIB(3 nM)esc vs original HK6a.
Test [9] concerns HK6a-VELesc/PIB(10 nM)esc, L28S + L31V (NS5A). It counts as cell-based, HCV genotype 6a. The settings on record: HK6a-VELesc/PIB(10 nM)esc (L28S+L31V) vs original HK6a.
Test [10] has as its system HK6a velpatasvir escape virus harboring NS5A-L31V. The test is classed as cell-based. The note with it: pibrentasvir 0.3, 3 and 10 nM.
Test [11] relates to HK6a full-length virus (original). The note with it: for day from which no HCV-antigen positive cells were detectable: HK6a original virus; for outcome of long-term treatment (resistance selection) / outcome of long-term treatment: HK6a; for outcome of long-term treatment: velpatasvir (10 nM) and sofosbuvir (570 nM), individually or combined.
Protocol: Long-term treatment was performed for HK6a viruses as described in Materials and Methods. (A): Percentage HCV-antigen positive cells determined by evaluation of Core/NS5A-antigen positive versus total number of cells during treatment (y-axis) at the indicated time points (x-axis) (top panel). […] Changes in HCV RNA levels (y-axis) related to day 0 (treatment initiated), were determined from supernatants at corresponding time-points (x-axis) (bottom panel)^18. (B-D): Combination treatment of sofosbuvir (570 nM) and different concentrations of velpatasvir [0.1(10x−EC50), 1(100x−EC50), 10(1000x−EC50) nM], were performed with HK6a escape viruses compared with original viruses.
For long-term DAA treatments, Huh7.5 cells were infected with second-passage supernatants of HK2(H77_3′XSLI)-17m or HK6a(FL)-12m viruses (Table 1, FIG. 1F). […] Treatments were carried out in T25 flasks, and drugs were diluted in medium at the indicated concentration. Drugs were added every 2-3 days when cells were split. HCV RNA levels were determined using supernatants collected at indicated time points as described^18. The percentage of HCV positive cells, at indicated time-points, was determined by immunostaining, and supernatants were collected and stored at −80° C. for further analysis. At day 25 after initiation of treatment, cultures with no detectable HCV positive cells were divided into 2 flasks, and one of the replicates was cultured without drug. These untreated cultures were followed for 2 weeks and if no HCV positive cells were detected by immunostaining, the infection was considered cleared.
In test [12] the test system is HK2-SOFesc, S282T (NS5B). It counts as cell-based, HCV genotype 6a. The note with it: HK2-SOFesc vs original HK2.
For test [13], the system named is HK2cc. Kind of test: microbe, parasite or virus in culture. The note with it: Hepatitis C virus; HK2cc in separate experiment of FIG. 4. It counts as cell-based.
Test [14] deals with escape viruses with RAS NS5B-S282T (HK2 and HK6a). It counts as cell-based, HCV genotype 6a. The settings on record: escape viruses generated in drug-free cultures, FIGS. 4A, B.
For test [15], the system named is HK2cc recombinant viruses with NS5B-S282T.
In test [16] the test system is velpatasvir escape viruses of HK2 and HK6a (NS5A-L31V). It counts as cell-based, HCV genotype 6a. The note with it: drug-free passage stocks of HK2 and HK6a escape viruses, FIG. 3A.
The mark [17] stands for this setting: Huh7.5 cells, treated 24 h after infection for 48 h, ni = not inhibited at highest concentration used.

Read-outs that look alike come from different tables or passages of the source. Marks after values point to notes of the source that are not given here. Some results are limits rather than exact numbers.

By EC50 is commonly meant the concentration needed to bring the measured effect to its halfway point. In the case of `COC(=O)N[C@H](C(=O)N1CCC[C@H]1c1nc(-c2ccc3c(c2)O[C@@H](c2ccccc2)n2c-3cc3cc(-c4c[nH]c([C@@H]5CCCN5C(=O)[C@@H](NC(=O)OC)C(C)C)n4)ccc32)c[nH]1)C(C)C` [Elbasvir], the EC50 in test [1] came to 0.006 nM; in test [2], 0.017 nM; in test [3], 0.009 nM. The “Fold to TN, HK2 (6a)” value in test [2] worked out at 2.8 fold. Further, the “Fold to TN, HK6a (6a)” value in [3] came out at 1.5 fold.
Consider `CC(C)OC(=O)[C@@H](C)N[P@@](=O)(OC[C@H]1O[C@@H](n2ccc(=O)[nH]c2=O)[C@](C)(Cl)[C@@H]1O)Oc1ccccc1` [MK-3682], for which the concentration giving a half-maximal response (EC50) was found to be 392 nM in test [1], 370 nM in test [2] and 522 nM in test [3]. Further, the “Fold to TN, HK2 (6a)” value in test [2] was 0.9 fold. In addition, the “Fold to TN, HK6a (6a)” value in [3] stood at 1.3 fold.
`CNC(=O)c1c(-c2ccc(F)cc2)oc2cc(N(CCO)S(C)(=O)=O)c(C3CC3)cc12` [HCV-796]: in test [1], the EC50 worked out at 26 nM. Further, in test [2], the half-maximal effective concentration (EC50) came out at 24 nM and the “Fold to TN, HK2 (6a)” value is given as 0.9 fold. For the same compound, in [3], the 50% effective concentration (EC50) was 131 nM and the “Fold to TN, HK6a (6a)” value is listed as 5.0 fold.
`COc1ccc2c(c1)[C@@H]1C[C@]1(C(=O)N1[C@@H]3CC[C@H]1CN(C)C3)Cn1c-2c(C2CCCCC2)c2ccc(C(=O)NS(=O)(=O)N(C)C)cc21` [Beclabuvir]: the EC50 in test [1] came to 5.3 nM. In test [2], the concentration for a half-maximal effect (EC50) came to 28.1 nM and the “Fold to TN, HK2 (6a)” value stood at 5.3 fold. In [3], the 50% effective concentration (EC50) was found to be 34.1 nM and the “Fold to TN, HK6a (6a)” value was 6.4 fold.
On to `COC(=O)N[C@H](C(=O)N1CCC[C@H]1c1nc2cc([C@H]3CC[C@H](c4cc5nc([C@@H]6CCCN6C(=O)[C@@H](NC(=O)OC)[C@@H](C)OC)[nH]c5cc4F)N3c3cc(F)c(N4CCC(c5ccc(F)cc5)CC4)c(F)c3)c(F)cc2[nH]1)[C@@H](C)OC` [Pibrentasvir], for which the “Fold-change EC50 to original virus” value turned out to be 1 fold in test [4]; 1 fold in [5]; 1 fold in test [6]; 250 fold in [7]; 85.500 fold in [8]; 79.000 fold in [9]. In addition, the “outcome of long-term treatment” value in test [10] is “escaped the treatment at all concentrations”. Also, the results for the “day from which no HCV-antigen positive cells were detectable” value in test [11] (pibrentasvir 0.3 nM), in test [11] (pibrentasvir 3 nM) and in [11] (pibrentasvir 10 nM) were 7 days, 5 days and 5 days, respectively. The “outcome of long-term treatment (resistance selection)” value in [11] (PIB 0.3 nM), in test [11] (PIB 3 nM) and in test [11] (PIB 10 nM) was “Infection cleared” each time. Moreover, the figures for the 50% effective concentration (EC50) in test [1], in test [2] and in [3] were 0.004 nM, 0.002 nM and 0.004 nM, respectively. Also, in [2], the “Fold to TN, HK2 (6a)” value was found to be 0.6 fold. In [3], the “Fold to TN, HK6a (6a)” value was 1.0 fold.
As to `CC(C)OC(=O)[C@H](C)N[P@](=O)(OC[C@H]1O[C@@H](n2ccc(=O)[nH]c2=O)[C@](C)(F)[C@@H]1O)Oc1ccccc1` [Sofosbuvir], the “Fold-change EC50 to original virus” value in test [12] is 7.9 fold; in test [6] it was ≥8^d fold. Also, the concentration for a half-maximal effect (EC50) in test [13] is 653 nM; in [1], 481 nM; in [2] it was 393 nM; in test [3] it was 513 nM. Moreover, the “fold increase in EC50” value in test [14] is recorded as at least 8 fold. Besides, in [15], the “fold lower sensitivity compared with HK2cc” value is listed as 3 to 5 fold. The “outcome of long-term treatment” value in test [11] was “failed to fully suppress the infection”. Further, the “Fold to TN, HK2 (6a)” value in [2] stood at 0.8 fold. In addition, the “Fold to TN, HK6a (6a)” value in test [3] was found to be 1.1 fold.
In the case of `COC[C@H]1C[C@@H](c2nc(-c3ccc4c(c3)COc3cc5c(ccc6nc([C@@H]7CC[C@H](C)N7C(=O)[C@@H](NC(=O)OC)C(C)C)[nH]c65)cc3-4)c[nH]2)N(C(=O)[C@H](NC(=O)OC)c2ccccc2)C1` [Velpatasvir], the “Fold-change EC50 to original virus” value was 3066 fold in [4]; 2384 fold in [5]; 1 fold in test [6]; around 58.000 fold in test [7]; 58.105 fold in test [7] (listed as VEL); ≥992.928^d fold in test [8]. The entries for the “Fold-change EC50 to original virus” value in test [9] and in test [9] (listed as VEL) were above 899.000 fold and ≥899.214^d fold, respectively. In addition, the “fold increase in EC50 in comparison with the pre-treatment virus” value in test [16] was 2- to 3 thousand. Besides, the “outcome of long-term treatment” value in test [11] is listed as “failed to fully suppress the infection”. Moreover, the EC50 in test [1] worked out at 0.005 nM; in [2], 0.007 nM; in [3] it was 0.011 nM. In test [2], the “Fold to TN, HK2 (6a)” value turned out to be 1.4 fold. Moreover, the “Fold to TN, HK6a (6a)” value in [3] was determined as 2.2 fold.
As for `COC(=O)N[C@H](C(=O)N1CCC[C@H]1C(=O)Nc1ccc([C@@H]2CC[C@@H](c3ccc(NC(=O)[C@@H]4CCCN4C(=O)[C@@H](NC(=O)OC)C(C)C)cc3)N2c2ccc(C(C)(C)C)cc2)cc1)C(C)C` [Ombitasvir], the 50% effective concentration (EC50) in test [1] turned out to be 0.002 nM. Besides, in [2], the EC50 came to 0.6 nM and the “Fold to TN, HK2 (6a)” value was determined as 300.0 fold. For the same compound, in test [3], the EC50 turned out to be 2.2 nM and the “Fold to TN, HK6a (6a)” value was determined as 1100.0 fold.
On to `CC(C)(C)C#Cc1cc(N(C(=O)[C@H]2CC[C@H](C)CC2)[C@H]2CC[C@H](O)CC2)c(C(=O)O)s1` [Lomibuvir], for which the concentration giving a half-maximal response (EC50) in [1] is 27.6 nM; in test [2], above 4000 nM; in [3], above 4000 nM. Moreover, the “EC50, nM (95% CI), HK2 (6a)” value in test [2] (setting [17]) was “ni”. In [3] (setting [17]), the “EC50, nM (95% CI), HK6a (6a)” value is reported as “ni”.
In the case of `COC(=O)N[C@H](C(=O)N1CCC[C@H]1c1nc(-c2ccc(-c3ccc(-c4c[nH]c([C@@H]5CCCN5C(=O)[C@@H](NC(=O)OC)C(C)C)n4)cc3)cc2)c[nH]1)C(C)C` [Daclatasvir], the concentration giving a half-maximal response (EC50) in test [1] came to 0.019 nM; in [3], 0.014 nM.
`COC(=O)N[C@H](C(=O)N1CC2(CC2)C[C@H]1c1nc(-c2ccc3c(c2)C(F)(F)c2cc(-c4ccc5[nH]c([C@@H]6[C@H]7CC[C@H](C7)N6C(=O)[C@@H](NC(=O)OC)C(C)C)nc5c4)ccc2-3)c[nH]1)C(C)C` [Ledipasvir]: the 50% effective concentration (EC50) in [1] was 0.005 nM; in test [2], 0.228 nM; in [3], 0.346 nM. Also, the “Fold to TN, HK2 (6a)” value in test [2] was found to be 45.6 fold. Besides, in test [3], the “Fold to TN, HK6a (6a)” value is on record as 69.2 fold.
As for `COc1c(-c2ccc3cc(NS(C)(=O)=O)ccc3c2)cc(-n2ccc(=O)[nH]c2=O)cc1C(C)(C)C` [Dasabuvir], the EC50 in test [1] worked out at 35.5 nM; in [2] it was 267 nM; in test [3], 434 nM. In test [2], the “Fold to TN, HK2 (6a)” value stood at 7.5 fold. Moreover, the “Fold to TN, HK6a (6a)” value in test [3] is listed as 12.2 fold.
